In patent US20240385182A1, “MASKED FLUOROGENIC LIPID COMPOUNDS, LIPID PARTICLES COMPRISING THE SAME, AND METHODS OF USE THEREOF” (Rutgers, The State University of New Jersey, priority 2023, published 2024):
“Also recorded” adds a separate entry of the source.

How the values were obtained:
HeLa and RAW 264.7 cells = experiment: MTT cell viability assay; type: cell-based; conditions: 8-250 μM, 24-hour period
Method: With a feasible liposome preparation and treatment protocol established for live cell imaging, attention was turned to assessing the cytocompatibility of the LNPs, with or without DPPC-TC-ONOO^−, DPPC-TC, and the oxa-spiro[4,5] decenone 6a. A standard 3-(4,5-dimethylthiazol-2-yl)-2,5-diphenyl tetrazolium bromide (MTT) cell viability assay in HeLa and RAW 264.7 cells treated with these molecules (8-250 μM) over a 24-hour period. The dose-response curves provided high IC50 values for each compound: DPPC-TC-ONOO− (≥100 μM), DPPC-TC (≥50 μM), and 6 (≥70 μM).

[1] = Confocal imaging of giant vesicles containing DPPC-TC-ONOO^− treated with redox species
Method: FIG. 8A: conceptual illustration of function of the model protocell. FIG. 8B: confocal images acquired for untreated (top panel) and peroxynitrite-treated (middle and bottom panels) GVs. FIG. 8C: confocal images acquired for GVs treated with other RNS and ROS. FIGS. 8B-8C: vesicles were prepared from POPC (98.5%, molar ratio) and DPPC-TC-ONOO^− (1%) via electroformation. Liss-Rhod PE dye (red, 560 nm excitation) was used at 0.5 mol % to label vesicle membranes. […] Scale bar=5 μm. In most biomimetic systems that rely on compartmentalization, physical membrane boundaries are comprised of self-assembled lipids. Biomimetic membranes can be represented by GVs, which have dimensional properties (1-30 μm in diameter) relevant to those of mammalian cells (10-100 μm), display physical characteristics feasible for confocal fluorescence imaging, and are utilized for bottom-up construction of biomimetic systems. […] Given the longer timescale required for data acquisition in microscopy compared to fluorescence measurements by plate reader, the pH of imaging buffers was set to 8.5, which extended the lifetime of peroxynitrite. […] Vesicle size distribution was analyzed by dynamic light scattering (DLS), confirming the presence of GVs. […] GVs were then imaged using fluorescence confocal microscopy. […]

RAW-264.7 cells = experiment: Confocal imaging and colocalization in live RAW-264.7 cells; type: cell-based, murine
Method: FIGS. 10A-10E: confocal imaging of lipid environments targeted by ONOO^− in live RAW246.7 cells. Cells were seeded into glass microscope dishes, incubated with LNPs (50 μM) and stained with organelle trackers and/or actin dye prior to imaging. LNPs obtained from a 47.5:47.5:5.0 molar ratio of DOTMA, DOPE, and DPPC-TC-ONOO^−. FIG. 10A: cells treated with LNPs, stimulated with LPS. Time coarse images acquired after addition of LPS. FIG. 10B: cells treated with LNPs and 1400 W. FIG. 10C: cells treated with LNPs, then with 1400 W and LPS. FIGS. 10D-10E: quantitative colocalization study of cells treated with LNPs and stimulated with LPS. Pearson's correlation coefficient (PCC) was calculated for quantitative assessment of colocalization using organelle trackers as described above. Scale bars=20 μm (FIGS. 10A-10D) or 5 μm (FIG. 10E). With the utility of DPPC-TC-ONOO^− proven in synthetic protocell membranes, incorporation into live HeLa and RAW 264.7 cells was sought, which are relevant to redox-induced stress and have well-recognized pathways for RNS and ROS production. Lipid nanoparticles (LNPs) (˜100 nm in diameter) was used to deliver DPPC-TC-ONOO− into cells. This method circumvented the limited solubility of DPPC-TC-ONOO− due to the relatively hydrophobic butanone-coumarin motif. LNPs were obtained via sonication from 1,2-di-O-octadecenyl-3-trimethylammonium propane (DOTMA), 1,2-dioleoyl-sn-glycero-3-phosphoethanolamine (DOPE), and DPPC-TC-ONOO− (47.5:47.5:5.0 molar ratio), which were hydrated with a 300 mM sucrose solution. DOTMA and DOPE were chosen as the carrier lipids due to their cationic/zwitterionic natures, which has been postulated to enhance uptake through the cell membrane. The impact of different LNP compositions and incubation times on the cellular incorporation of DPPC-TC-ONOO^− was assessed. […] Specifically, LNPs containing greater than 10 mol % DPPC-TC-ONOO− were considerably more heterogenous in size (up to […] observed, in contrast to ˜100 nm) and nonuniform in vesicle lamellarity. Those with less than 4 mol % DPPC-TC-ONOO− led to insufficient fluorescence signal. To balance these counteracting factors, 5 mol % DPPC-TC-ONOO− was used, with 47.5 mol % DOTMA and DOPE, each. In these initial assays, cells were incubated with LNPs for up to 15 hours to complete the uptake and intracellular localization of DPPC-TC-ONOO−. Shorter incubation times (3-to-5 hours) led to its uptake but not subcellular localization. […] However, high serum concentration in DMEM caused interference between LNPs and serum-protein, resulting in aggregate formation as observed by microscopy. To overcome this obstacle, LNPs (50 μM) were used in a mixture of 2/3 volumetric ratio of sucrose solution and Opti-MEM™, a reduced serum medium known to increase the efficiency of lipofection. The investigations were expanded to include murine-derived macrophage model, RAW-264.7 (FIGS. 10A-10E). RNS play important roles in macrophage activation and differentiation as part of the inflammatory response. Treatment of RAW-264.7 cells with LPS leads to the expression of iNOS, which produces NO·, which then reacts with O2·^−, generating ONOO−. RAW-264.7 cells were treated with LNPs containing either DPPC-TC (positive control) or DPPC-TC-ONOO^− (FIGS. 10A-10E). […] Assessment of DPPC-TC-ONOO^− localization in RAW-264.7 cells was carried out using the ER, Golgi, mitochondrion, and lysosome trackers (FIGS. 10D-10E).

## CCCCCCCCCCCCCCCC(=O)OCC(COP(=O)([O-])OCC[N+](C)(C)Cc1cn(-c2cc3ccc(OC(=O)Oc4ccc(CCC(=O)C(F)(F)F)cc4)cc3oc2=O)nn1)OC(=O)CCCCCCCCCCCCCCC (racemic) [DPPC-TC-ONOO^−]
HeLa and RAW 264.7 cells
  IC50: ≥ 100 µM
[1]; GVs of POPC and DPPC-TC-ONOO^− (~99:1), ONOO^− 100 μM
  GV membrane fluorescence at 405 nm excitation: substantial increase in membrane fluorescence; also recorded: strong fluorescence
[1]; GVs of POPC and DPPC-TC-ONOO^−, other redox species (NO·, H2O2, HO·, ^1O2, O2·^−) 100 μM, 5 min
  GV fluorescence at 405 nm excitation: essentially no fluorescence generation; also recorded: minimal fluorescence
RAW-264.7 cells; RAW-264.7, 1400 W only or 1400 W and LPS
  signal in the DPPC-TC channel: little-to-no signal
RAW-264.7 cells; RAW-264.7, ER tracker
  PCC: 0.946
RAW-264.7 cells; RAW-264.7, Golgi tracker
  PCC: 0.729
RAW-264.7 cells; RAW-264.7, LNPs, stimulation with LPS over 16 hours
  fluorescence intensity: substantial increase in fluorescence intensity
RAW-264.7 cells; RAW-264.7, LNPs, unstimulated
  signal at 405/475 nm: negligible levels of signal
